Experimental data from PubChem BioAssay (NCI).
“And” between values parts separate entries of the source, which are not always exact repeats. Equal entries are not always repeated.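 Dose response: 5 concentrations. Exposure: 48 h. Format: 96-well plates. Endpoint: linear interpolation; highest concentration if not reached. The concentration for 50% growth inhibition is given as GI50. TGI denotes the concentration required for complete inhibition of growth.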

Columns and labels:
Experiment in all cases: NCI-60 cell line screen, 48 h
[1] = test system: 786-0 renal
[2] = test system: K-562 leukemia
[3] = test system: KM12 colon
[4] = test system: MDA-MB-231 breast
[5] = test system: NCI-H23 lung
[6] = test system: NCI/ADR-RES ovarian
[7] = test system: OVCAR-4 ovarian
[8] = test system: RPMI-8226 leukemia
[9] = test system: SK-MEL-28 melanoma
[10] = test system: SR leukemia

Compound	GI50 [1]	TGI [1]	GI50 [2]	TGI [2] [µM]	GI50 [3]	TGI [3]	GI50 [4]	TGI [4]	GI50 [5]	TGI [5]	GI50 [6]	TGI [6]	GI50 [7]	TGI [7]	GI50 [8]	TGI [8]	GI50 [9]	TGI [9]	GI50 [10]	TGI [10] [µM]
COc1cc(-c2nn(-c3cccc(NC(=O)CCN4CCN(C)CC4)c3)cc2-c2ccncc2)ccc1Cl	1.54 µM	3.43 µM	0.73 µM	2.53	1.36 µM	4.59 µM	1.69 µM	3.66 µM	2.38 µM	10.4 µM	2.62 µM	8.76 µM	1.73 µM	11.4 µM	1.77 µM	4.56 µM	1.48 µM	2.99 µM	0.471 µM	2.64
CC(C)[C@H](C(=O)O[C@@H]1/C=C/C(=O)O[C@@H](C)CCC/C=C/[C@@H]2C[C@H](O)C[C@H]21)N(C)C	6.15 µM	21.1 µM	23.7 µM	58.1	3.65 µM	11 µM	12.8 µM	51.9 µM	16.8 µM	> 83.6 µM	14.9 µM	> 87.8 µM	8.7 µM	> 94.5 µM	8.12 µM	36.8 µM	5.01 µM	28 µM	14.9 µM	33.8
CC(C)COC(c1ccc2c(c1)OCO2)C(C)Br (stereo not given)		62.3 µM		> 100		55 µM		> 100 µM		72.9 µM		90.2 µM		> 100 µM		43 µM		> 100 µM		46.1
c1cc2c(c(NC3=NCCN3)c1)CCCC2		> 100 µM		> 100		> 100 µM		> 100 µM		> 100 µM		> 100 µM		> 100 µM		> 100 µM		> 100 µM		> 100
COC(=O)[C@]12CC[C@@H](C)[C@H](C)[C@@H]1C1=CC[C@@H]3[C@@]4(C)CC(=O)[C@H](O)[C@@](C)(CO)[C@@H]4C(=O)C[C@@]3(C)[C@]1(C)CC2	12.4 µM	25.4 µM	11.2 µM	40.7	10.8 µM	23.6 µM	13.6 µM	29.2 µM	13.9 µM	31.1 µM	12.1 µM	32.4 µM	11 µM	25.1 µM	0.53 µM	19.4 µM	14.6 µM	31.9 µM	5.95 µM	27.1
O=C1NC(=N[C@H](CO)c2ccccc2)S/C1=C\c1ccc2ncccc2c1	7.31 µM	> 25 µM	4 µM	> 25	5.77 µM	> 21.4 µM	7.71 µM	> 25 µM	6.42 µM	> 25 µM	> 19.3 µM	> 25 µM	2.67 µM	> 25 µM	3.73 µM	10.9 µM	7.96 µM	> 25 µM	0.786 µM	4.85
CC12CC(=O)C3C(CCC4=CC(=O)CCC43C)C1CC=C2CC(=O)O (stereo not given)		> 100 µM		> 100		> 100 µM		> 100 µM		> 100 µM		> 100 µM		> 100 µM		> 100 µM		> 100 µM		> 100
COc1ccc(/C=C2\CCC(Cc3ccccc3)(CN(C)C)C2=O)cc1 (stereo not given)		> 100 µM		78		> 100 µM		> 100 µM		> 100 µM		> 100 µM		> 100 µM		62.9 µM		> 100 µM		54
O=C1/C(=C/c2ccccc2[N+](=O)[O-])COc2ccc(O)c(O)c21	0.805 µM	4.74 µM	0.428 µM	> 100	1.55 µM	3.72 µM	0.799 µM	2.68 µM	1.54 µM	5.22 µM	1.23 µM	13.6 µM	0.857 µM	2.29 µM	0.421 µM	> 41.3 µM	1.33 µM	2.97 µM	0.476 µM	> 100
N#Cc1ccc(/C=C/C(=O)c2ccccc2)cc1	15.9 µM and 14.6 µM	> 52.2 µM and 29.2 µM	2.83 µM and 2.3 µM	> 26.2	1.79 µM and 1.83 µM	3.46 µM and 3.54 µM	15 µM and 15.1 µM	29.3 µM and 30.1 µM	10.8 µM and 15.4 µM	24.3 µM and 33.2 µM	22.8 µM and 24.2 µM	54.8 µM and 69.8 µM	16.5 µM and 13.2 µM	36.5 µM and 27 µM	2.32 µM and 1.93 µM	6.4 µM and 4.83 µM	15.5 µM and 5.18 µM	28.8 µM and 14.9 µM	1.88 µM and 1.52 µM	6.11
Oc1cccc(-c2nc(-c3ccccc3)[nH]c2-c2ccncc2)c1	9.11 µM	> 25 µM	11.7 µM	> 25	13 µM	> 25 µM	9.59 µM	> 25 µM	12.4 µM	> 25 µM	> 25 µM	> 25 µM	10.5 µM	> 25 µM	13.5 µM	> 25 µM	2.03 µM	> 18.5 µM	11.3 µM	> 25
